Patent US20210353767A1, “COMPOSITIONS AND METHODS FOR DRUG DELIVERY” (NORTH CAROLINA STATE UNIVERSITY, priority 2018, published 2021)
Several values for one entry are separate records, joined by “and”; a condition that tells them apart may be missing. Equal values may be shown once. Read-outs that look alike come from different tables or passages of the source.

What was measured:
[1] = test system: KPC 4662 pancreatic tumor; conditions: average of 4 mice
Experimental: Allograft Pancreatic Tumor. KPC 4662 pancreatic tumor cells (5e5) were injected in a 1:1 ratio with PBS:Matrigel(Matrigel Matrix 354234, lot 7205011) into the subcutaneous dorsal flanks of CD57B16 mice.
IVIS imaging (Camera #11219, DW434) was performed right before 100 ul of 50 mg/ml DBCO-cy7 retro orbital injections and imaged 24 hours afterwards when most of the unbound DBCO-cy was cleared from systemic circulation. For the refill dose experiments 9-week-old albino c57b16's from Envigo were used. For all other tumor refills, 9-week-old regular c57s from Envigo were used.

[2] = CD1 mice, one month after intradermal injection of 50 μL
Experimental: H&E slides of mouse skin and tissues from 8 mice were analyzed to determine local or distal effects of an injected depot material. All tissues were evaluated by light microscopy and were graded as: “-”=no changes observed in this tissue for any mouse; “0”=a particular change not present; “1”=change is present at slight/minimal severity; “2”=mild severity, “3”=moderate severity; “4” marked severity; “5”=severe. A grade of 1 represents the minimal detectable change and a 5 represents a change judged to be essentially as severe as possible.

KPC 4662 tumors = conditions: pancreatic tumor after a dose of DBCO-cy7
Experimental: 8 mice were similarly injected with KPC 4662 tumors and allowed to grow over a week until injection of sNHS(N=4) or PBS(N=4). Injection and imaging was performed as described above on the IVIS before and 24 hours after DBCO-cy7 IV injection. Tumors were then explanted imaged to compare to a linear regression alginate gels ROI's that contained the same dose injected IV to obtain a percentage of cy7 captured at the tumor site.
The study employed three tumors injected with a “Click Target” and one control.

[3] = Brain refills: capture of i.v. DBCO-Cy7 at intracranial azide-sNHS depot; type: in vivo; conditions: azide-sNHS vs control mice, 24 hours after i.v. administration
Experimental: Representative images of azide-sNHS and control mice after 24 hours after i.v. administration of DBCO-Cy7. The brain was removed and imaged alone.
Quantitation of intracranial ROI radiant efficiency was measured 24 hours after i.v. DBCO-Cy7 administration. Samples show mean+/−SEM. *=p<0.05, **=p<0.01 by Student's T-test.
Brain Refills. For anesthesia, 1-5% isoflurane was administered before procedures as well as continuously through the stereotaxic setup, and 0.5% lidocaine HCL administered subcutaneous under the incision site prior to surgery. 10-week-old CD1 mice were mounted on a kopf stereotaxic head stage using ear bars and a 5 μl Hamilton syringe placed in needle fixture. For surgery, the area to be incised on the head was shaved and washed with 70% alcohol. An incision with a #10 blade was made from posterior to anterior (start of skull to between eyes) and skin pulled away from incision using sterile Q-tips to expose the skull. The syringe needle was adjusted so the tip was at Bregma, position of the stereotaxic device recorded, and then moved to the desired calculated position where a marking will be made with a surgical marker. The experimental coordinates were −2.5M/L, −1A/P, −3D/V. A small hand drill was then used to make a 1-2 mm size hole in the skull for the injection needle. […] Once complete, the mouse skin was joined by VetBond skin glue and monitored post-surgery. […]

[4] = Intradermal tetrazine-sNHS depot, IVIS imaging of TCO-cy5 capture; type: in vivo, mice; conditions: for Average Radiant Efficiency: average of 4 mice; for Total Radiant Efficiency Measured within Regions of Interest (ROI): before-injection value subtracted, individual mouse
Experimental: 50 μL of 0.05M methyl tetrazine-sNHS ester was dissolved in sterile PBS, and injected intradermally into the dorsal flanks of mice CD1 Charles river mice. The first four images in FIG. 8 are pictures of the four mice treated with the “Click-Target” (tetrazine-sNHS) and the four control mice injected with PBS. The last 4 images in FIG. 8 show the fluorescence observed 24 hours after injection of the “Click Prodrug” (TCO-cy5). The IVIS was adjusted for this cy5 fluorophore. […] This experiment was also performed at 1 week with similar results
The total increase in fluorescence after the TCO-cy5 injection (at 1 day) over the intradermal injection ROI's (total radiant efficiency measurement) subtracting the before tco-cy5 image injection value are included below.
The total increase in fluorescence after the TCO-cy5 injection (at 1 week) over the intradermal injection ROI's (total radiant efficiency measurement) subtracting the before tco-cy5 image injection value are included below.

**Q.** For `[N-]=[N+]=NCCC(=O)ON1C(=O)CC(S(=O)(=O)O)C1=O` (stereo not shown) [Azide sNHS, 3-Azidopropionic Acid Sulfo-NHS ester], which “Average Radiant Efficiency” value ([1]; 24 hours after first administration of DBCO-cy7) is on record?
**A.** 9.21 × 10^9

**Q.** What about the “Average Radiant Efficiency” value ([1]; 24 hours after second administration of DBCO-cy7) of the same compound?
**A.** 7.26 × 10^9

**Q.** What about the “Average Radiant Efficiency” value ([1]; 24 hours after third administration of DBCO-cy7) of the same compound?
**A.** 4.12 × 10^9

**Q.** What about the “histologic changes (H&E) versus PBS group” value [2] of the same compound?
**A.** no difference between the two groups

**Q.** And the “radiance relative to control (ROI measurements)” value (KPC 4662 tumors)?
**A.** four times greater

**Q.** For `C[N+]1=C(C=CC2=CC(=CC=C3N(CCCCCC(=O)NCCCCCC(=O)N4Cc5ccccc5C#Cc5ccccc54)c4ccccc4C3(C)C)CCC2)C(C)(C)c2ccccc21.F[P-](F)(F)(F)(F)F` [DBCO-Cy7, Cyanine7 DBCO], which “capture in the brain” value [3] is on record?
**A.** click-specific capture

**Q.** Which results are given for methyl tetrazine-sNHS ester?
**A.** Average Radiant Efficiency ([4]; TCO-cy5 injection at 1 week): 1.25 × 10^9; Average Radiant Efficiency ([4]; TCO-cy5 injection at 1 day): 2.72 × 10^9; Total Radiant Efficiency Measured within Regions of Interest (ROI) ([4]; increase in fluorescence after TCO-cy5 injection at 1 week): 1.12 × 10^9 and 1.57 × 10^9 and 1.31 × 10^9 and 1.01 × 10^9; Total Radiant Efficiency Measured within Regions of Interest (ROI) ([4]; increase in fluorescence after TCO-cy5 injection at 1 day): 3.64 × 10^9 and 2.40 × 10^9 and 1.92 × 10^9 and 2.90 × 10^9
